Source: EP0252422A2, “Pyridazinone derivatives and salts thereof” (MITSUBISHI KASEI CORPORATION, priority 1986, dated 1988)

Legend:
guinea pig left atrium = assay: isolated guinea pig left atrium, isometric contraction in organ bath; settings: Cavia porcellus, read-out: Contractile foece of guinea pig left atrium Increase rate (%); for activation at 30 µg/mL: Dosage 3x10^-5 g/ml; for activation at 10 µg/mL: Dosage 10^-5 g/ml
Procedure: 2) Method of using isolated guinea pig left atrium
Male guinea pigs weighing 200 - 300 g were killed by hitting their back of the heat and their left atria were immediately isolated. The left atrium was fixed to the bottom of an organ bath filled with 30 ml of Klebs-Henseleit's solution maintained at 35 °C. A mixed gas comprising 95 % of 02 and 5 % of C02 was passed through the Klebs-Henseleit's solution in the organ bath. The auricle of the left atrium was connected to a transducer with a thread to measure the isometric contraction. The atrium was applied with 0.5 g of resting tension. The atrium was electrically driven by square wave of 1 millisecond duration at a voltage of the order of 1.5 times of the threshold voltage and at a rate of twice per second by means of two platinum electrodes. The preparation was stabilized for 30 minutes, then the compound dissolved in solvent was added to the organ bath, and the reaction was determined.

dog papillary muscle = assay: cross-circulated preparation of isolated dog papillary muscle; settings: Canis lupus familiaris, read-out: Contractile force of dog papillary muscle Increasing rate (%); for activation at 0.03 mg: Dosage 30 µg i.a.; for activation at 0.1 mg: Dosage 100 µg i.a.
Procedure: 1) Method of using cross-circulated preparation of isolated dog papillary muscle
Cross-circulated preparations of isolated dog papillary muscle were prepared according to the method of Endoh & Hashimoto, American J. Physiol., vol. 218, p.1459-1463, 1970, United States. The compound dissolved in solvent was injected to the artery close to the preparation, and the action of the compound on the contractile force of papillary muscle was determined.

anesthetized dog = assay: anesthetized dog, cardiac contractility and cardiac output; assay type: in vivo; settings: for Co Increasing rate (%): blood flow rate in the aorta as index of cardiac output; for Cont Increasing rate (%): contractile force of the right cardiac ventricle muscle
Procedure: 3) Method of using anesthetized dog
Male or female mongrel dogs weighing 8 - 15 kg were used. The dogs were anesthetized with sodium pentobarbital at the dose of 30 mg/kg (intravenous injection) and then applied with artificial respiration. They were thoracotomised at the intercostal portion between forth and fifith costa, and the fifth costa was excised. Then the pericardium was cut to expose the heart. A probe of an electromagnetic flow meter was attached to the aorta to measure the blood flow rate in the aorta, which was used as an approximate index of the cardiac output (CO). A polyethylene cannula was inserted into the left cardiac ventricle to measure the intraventricular pressure, thereby the variation rate of the intraventricular pressure of the left cardiac ventricle (dp/dt) was electrically determined. A strain gauge was attached to the wall of the right cardiac ventricle to measure the contractile force of the right cardiac ventricle muscle (Cont). The systemic blood pressure was measured at the left femoral artery. The heart rate was measured by means- of a cardiotachometer. The compound dissolved in solvent was applied intravenously from the left femoral vein.

Compound | activation at 30 µg/mL (guinea pig left atrium) [%] | activation at 10 µg/mL (guinea pig left atrium) [%] | activation at 0.03 mg (dog papillary muscle) [%] | activation at 0.1 mg (dog papillary muscle) [%] | dp/dtmax Increasing rate (%) (anesthetized dog; Dosage 30 µg/kg i.v.) | Co Increasing rate (%) (anesthetized dog; Dosage 30 µg/kg i.v.) | Cont Increasing rate (%) (anesthetized dog; Dosage 30 µg/kg i.v.) | dp/dtmax Increasing rate (%) (anesthetized dog; Dosage 100 µg/kg i.v.) | Co Increasing rate (%) (anesthetized dog; Dosage 100 µg/kg i.v.) | Cont Increasing rate (%) (anesthetized dog; Dosage 100 µg/kg i.v.)
COc1cc(C2=NNC(=O)CC2)ccc1OCC(=O)N1CCN(Cc2ccc(OC)c(OC)c2OC)CC1 [Compound of Example 1] | 44.8 | 35.5 | 10 | 20.1 | 12.9 | 5.5 | 7.9 | 27.1 | 13.3 | 21.5
COc1ccc(CN2CCN(C(=O)COc3ccc(C4=NNC(=O)CC4)cc3)CC2)c(OC)c1OC [Compound of Example 2] | 22.6 | 6.4 | 11.4 | 12.5 | 12.2 | 4.8 | 10.1 | 34.3 | 16.3 | 22.8
COc1ccc(CN2CCN(C(=O)COc3ccc(C4=NNC(=O)CC4)cc3)CC2)cc1 [Compound of Example 3] | 28 | 32 | 13.2 | 17 | 18.0 | 17.4 | 12.2 | 49.8 | 28.9 | 29.1
COc1ccc(N2CCN(C(=O)C(C)Oc3ccc(C4=NNC(=O)CC4)cc3OC)CC2)cc1 (stereo not shown) [Compound of Example 4] | 35.9 | 23.8 | 7.5 | 24.8 | 9.9 | 8.7 | 3.6 | 19.2 | 19.6 | 10.0
